Test results: patent US7626031B2, “Substituted 3-(diarylmethylene)indolin-2-ones and methods of their use” (Symphony Evolution, Inc., priority 2002, dated 2009)

Tests used:
[1] = molecular target: Flt-1 (Homo sapiens, UniProt P17948); experiment: Kinase assay, Flt-1 (33P-ATP incorporation or luciferase-coupled ATP consumption); assay type: biochemical; details: read-out: Flt1 IC50
Outline: (§1)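 Two formats used: luciferase/luciferin chemiluminescence of ATP consumed with pEY, or radiometric 33P transfer to plate-bound MBP or pEY read by scintillation.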

[2] = molecular target: T1, KDR (baculovirus expressed human KDR kinase domain D807-V1356) (Homo sapiens, UniProt P35968); experiment: biochemical
T1 construct: human KDR kinase domain D807-V1356; host or cells: baculovirus expression system
T1 sequence (P35968 807-1356): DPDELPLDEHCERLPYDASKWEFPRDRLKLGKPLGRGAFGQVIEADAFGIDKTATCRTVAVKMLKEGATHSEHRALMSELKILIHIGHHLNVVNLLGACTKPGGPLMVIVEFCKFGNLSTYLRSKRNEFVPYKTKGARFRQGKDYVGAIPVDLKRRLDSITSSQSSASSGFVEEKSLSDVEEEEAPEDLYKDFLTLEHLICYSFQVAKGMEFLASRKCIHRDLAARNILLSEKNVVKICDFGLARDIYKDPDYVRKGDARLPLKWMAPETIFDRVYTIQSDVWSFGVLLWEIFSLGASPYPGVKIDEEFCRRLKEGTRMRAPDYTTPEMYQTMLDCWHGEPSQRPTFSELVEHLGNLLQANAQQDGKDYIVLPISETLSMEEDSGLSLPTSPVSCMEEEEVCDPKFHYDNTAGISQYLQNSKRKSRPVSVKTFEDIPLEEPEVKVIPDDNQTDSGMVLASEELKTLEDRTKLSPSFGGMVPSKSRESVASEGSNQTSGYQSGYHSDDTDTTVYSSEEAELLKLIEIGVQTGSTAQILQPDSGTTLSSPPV
Outline: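 Baculovirus human KDR kinase domain (D807–V1356) with ATP near its KM; 10-point dose-response, 4 h at ambient temperature. Activity taken as percent ATP remaining, detected by luciferase–luciferin chemiluminescence.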

[3] = molecular target: Fyn (Homo sapiens, UniProt P06241); experiment: Kinase assay, Fyn; assay type: biochemical
Sequence of Fyn (P06241 whole entry, species assumed): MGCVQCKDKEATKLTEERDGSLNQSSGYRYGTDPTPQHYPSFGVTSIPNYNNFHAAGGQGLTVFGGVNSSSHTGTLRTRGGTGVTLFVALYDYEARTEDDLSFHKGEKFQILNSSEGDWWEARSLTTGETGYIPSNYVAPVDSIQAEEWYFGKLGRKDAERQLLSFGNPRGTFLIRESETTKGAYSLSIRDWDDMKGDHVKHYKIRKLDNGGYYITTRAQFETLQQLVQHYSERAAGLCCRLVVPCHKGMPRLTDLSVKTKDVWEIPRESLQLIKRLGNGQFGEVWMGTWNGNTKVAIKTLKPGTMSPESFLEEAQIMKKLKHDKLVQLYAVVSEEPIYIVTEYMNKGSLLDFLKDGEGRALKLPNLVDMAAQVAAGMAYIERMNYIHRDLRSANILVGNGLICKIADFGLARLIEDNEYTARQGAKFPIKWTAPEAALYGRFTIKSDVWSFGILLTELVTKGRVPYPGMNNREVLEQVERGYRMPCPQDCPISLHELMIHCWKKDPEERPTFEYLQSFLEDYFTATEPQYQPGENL
Procedure: (§2) Kinase activity and compound inhibition are investigated using one or more assay formats. The ATP concentrations for each assay are selected to be close to the Michaelis-Menten constant (KM) for each individual kinase. Dose-response experiments are performed at 10 different inhibitor concentrations in a 384-well plate format. […] Exemplary kinase assays are described below. KDR Assay

[4] = molecular target: c-Kit kinase (Homo sapiens, UniProt P10721); experiment: c-Kit AlphaScreen kinase assay; assay type: biochemical
Procedure: as §2
c-Kit biochemical activity was assessed using AlphaScreen™ (Perkin Elmer) technology, described above. Test compounds, ATP, biotinylated poly(Glu, Tyr) and c-Kit kinase were combined in a volume of 20 μL in a 384-well white, medium binding microtiter plate (Greiner). Reaction mixtures were incubated for 1 hr at ambient temperature. Reactions were quenched by addition of 10 uL of […] AlphaScreen bead suspension containing 75 mM Hepes, pH 7.4, 300 mM NaCl, 120 mM EDTA, 0.3% BSA and 0.03% Tween-20. After 16 hr incubation at ambient temperature plates were read using an AlphaQuest reader (Perkin Elmer).

[5] = molecular target: FGFR1 (Homo sapiens, UniProt P11362); experiment: Kinase assay, FGFR1 (33P-ATP incorporation or luciferase-coupled ATP consumption); assay type: biochemical
Sequence of FGFR1 (P11362 22-822, species assumed): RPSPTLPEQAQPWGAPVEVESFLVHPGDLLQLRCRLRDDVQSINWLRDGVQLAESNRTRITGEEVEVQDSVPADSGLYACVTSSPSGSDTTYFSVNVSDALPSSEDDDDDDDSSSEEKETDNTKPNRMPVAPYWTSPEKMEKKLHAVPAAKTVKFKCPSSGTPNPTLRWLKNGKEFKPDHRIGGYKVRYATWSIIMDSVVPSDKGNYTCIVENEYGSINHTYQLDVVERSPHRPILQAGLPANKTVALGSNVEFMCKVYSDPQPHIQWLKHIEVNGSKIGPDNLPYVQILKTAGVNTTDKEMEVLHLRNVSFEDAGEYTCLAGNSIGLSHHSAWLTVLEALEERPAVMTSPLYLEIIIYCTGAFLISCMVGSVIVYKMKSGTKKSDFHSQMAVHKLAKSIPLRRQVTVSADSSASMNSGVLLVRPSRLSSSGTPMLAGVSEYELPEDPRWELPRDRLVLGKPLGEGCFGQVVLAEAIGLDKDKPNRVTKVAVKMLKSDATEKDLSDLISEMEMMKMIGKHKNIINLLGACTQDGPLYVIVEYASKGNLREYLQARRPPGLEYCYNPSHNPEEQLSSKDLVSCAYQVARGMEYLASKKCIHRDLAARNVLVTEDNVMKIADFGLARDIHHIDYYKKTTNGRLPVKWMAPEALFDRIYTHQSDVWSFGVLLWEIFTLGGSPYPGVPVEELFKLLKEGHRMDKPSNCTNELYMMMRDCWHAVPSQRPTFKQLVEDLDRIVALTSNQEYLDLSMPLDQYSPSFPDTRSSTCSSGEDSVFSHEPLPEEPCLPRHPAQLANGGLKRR
Outline: as §1

[6] = molecular target: EphA2 (Homo sapiens, UniProt P29317); experiment: Kinase assay, EphA2 (33P-ATP incorporation or luciferase-coupled ATP consumption); assay type: biochemical
Sequence of EphA2 (P29317 24-976, species assumed): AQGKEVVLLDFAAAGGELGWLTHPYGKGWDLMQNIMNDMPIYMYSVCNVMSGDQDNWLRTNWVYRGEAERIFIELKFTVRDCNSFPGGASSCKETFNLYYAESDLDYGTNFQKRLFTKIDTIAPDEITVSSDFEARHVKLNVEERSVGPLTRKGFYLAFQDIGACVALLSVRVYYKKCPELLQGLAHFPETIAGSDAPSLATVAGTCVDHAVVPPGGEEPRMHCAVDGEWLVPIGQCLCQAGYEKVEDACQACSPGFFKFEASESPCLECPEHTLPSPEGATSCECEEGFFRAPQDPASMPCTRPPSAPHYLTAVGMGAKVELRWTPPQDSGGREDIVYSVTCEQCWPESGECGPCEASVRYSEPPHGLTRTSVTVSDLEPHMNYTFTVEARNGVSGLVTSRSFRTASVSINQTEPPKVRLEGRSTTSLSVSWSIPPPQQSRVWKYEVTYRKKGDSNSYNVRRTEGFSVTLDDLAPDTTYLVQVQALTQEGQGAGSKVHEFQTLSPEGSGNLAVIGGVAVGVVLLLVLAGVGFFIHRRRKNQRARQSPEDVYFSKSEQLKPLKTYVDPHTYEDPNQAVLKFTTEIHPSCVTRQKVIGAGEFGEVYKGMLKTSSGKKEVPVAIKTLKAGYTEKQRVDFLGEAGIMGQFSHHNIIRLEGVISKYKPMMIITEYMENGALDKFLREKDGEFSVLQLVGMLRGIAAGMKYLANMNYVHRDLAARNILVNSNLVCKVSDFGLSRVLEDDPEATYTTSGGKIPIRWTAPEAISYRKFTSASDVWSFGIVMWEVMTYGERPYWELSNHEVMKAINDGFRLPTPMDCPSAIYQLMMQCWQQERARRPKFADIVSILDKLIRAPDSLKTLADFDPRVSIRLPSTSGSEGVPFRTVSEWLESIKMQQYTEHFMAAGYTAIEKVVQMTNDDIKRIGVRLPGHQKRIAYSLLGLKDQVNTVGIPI
Outline: as §1

[7] = molecular target: IRK (Homo sapiens, UniProt P06213); experiment: Kinase assay, IRK; assay type: biochemical
Procedure: as §2

[8] = molecular target: PDGFR alpha (Homo sapiens, UniProt P16234); experiment: Kinase assay, PDGFR alpha (33P-ATP incorporation or luciferase-coupled ATP consumption); assay type: biochemical; details: read-out: PDGF-R-A IC50
Sequence of PDGFR alpha (P16234 24-1089): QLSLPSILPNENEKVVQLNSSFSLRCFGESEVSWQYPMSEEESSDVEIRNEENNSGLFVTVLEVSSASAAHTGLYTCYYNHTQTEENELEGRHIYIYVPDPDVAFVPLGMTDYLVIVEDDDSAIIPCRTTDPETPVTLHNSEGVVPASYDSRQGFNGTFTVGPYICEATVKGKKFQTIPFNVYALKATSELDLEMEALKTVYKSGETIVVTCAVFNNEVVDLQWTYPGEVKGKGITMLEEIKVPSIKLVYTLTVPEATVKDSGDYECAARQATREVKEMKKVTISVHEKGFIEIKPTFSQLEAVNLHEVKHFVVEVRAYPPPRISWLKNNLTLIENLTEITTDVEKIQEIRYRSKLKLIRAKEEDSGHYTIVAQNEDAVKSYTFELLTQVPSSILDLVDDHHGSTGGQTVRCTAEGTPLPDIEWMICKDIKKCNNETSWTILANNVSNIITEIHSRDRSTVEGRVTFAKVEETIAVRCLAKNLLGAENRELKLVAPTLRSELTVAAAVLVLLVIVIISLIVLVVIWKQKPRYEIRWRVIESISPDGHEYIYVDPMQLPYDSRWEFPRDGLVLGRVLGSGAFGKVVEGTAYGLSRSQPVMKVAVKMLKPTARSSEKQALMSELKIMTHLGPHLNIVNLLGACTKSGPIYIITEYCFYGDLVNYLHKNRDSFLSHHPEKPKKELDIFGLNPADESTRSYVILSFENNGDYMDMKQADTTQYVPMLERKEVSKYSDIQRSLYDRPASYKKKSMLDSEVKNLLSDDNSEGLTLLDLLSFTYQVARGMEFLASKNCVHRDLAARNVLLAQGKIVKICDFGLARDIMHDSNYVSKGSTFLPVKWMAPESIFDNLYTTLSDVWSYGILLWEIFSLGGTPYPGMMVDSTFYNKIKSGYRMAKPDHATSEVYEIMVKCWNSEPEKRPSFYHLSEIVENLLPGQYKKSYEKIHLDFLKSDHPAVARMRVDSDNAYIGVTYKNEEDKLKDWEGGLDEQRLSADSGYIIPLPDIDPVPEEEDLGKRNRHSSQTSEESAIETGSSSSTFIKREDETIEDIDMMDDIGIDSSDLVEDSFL
Outline: as §1

[9] = molecular target: EGFR (Homo sapiens, UniProt P00533); experiment: Kinase assay, EGFR (33P-ATP incorporation or luciferase-coupled ATP consumption); assay type: biochemical
Sequence of EGFR (P00533 25-1210, species assumed): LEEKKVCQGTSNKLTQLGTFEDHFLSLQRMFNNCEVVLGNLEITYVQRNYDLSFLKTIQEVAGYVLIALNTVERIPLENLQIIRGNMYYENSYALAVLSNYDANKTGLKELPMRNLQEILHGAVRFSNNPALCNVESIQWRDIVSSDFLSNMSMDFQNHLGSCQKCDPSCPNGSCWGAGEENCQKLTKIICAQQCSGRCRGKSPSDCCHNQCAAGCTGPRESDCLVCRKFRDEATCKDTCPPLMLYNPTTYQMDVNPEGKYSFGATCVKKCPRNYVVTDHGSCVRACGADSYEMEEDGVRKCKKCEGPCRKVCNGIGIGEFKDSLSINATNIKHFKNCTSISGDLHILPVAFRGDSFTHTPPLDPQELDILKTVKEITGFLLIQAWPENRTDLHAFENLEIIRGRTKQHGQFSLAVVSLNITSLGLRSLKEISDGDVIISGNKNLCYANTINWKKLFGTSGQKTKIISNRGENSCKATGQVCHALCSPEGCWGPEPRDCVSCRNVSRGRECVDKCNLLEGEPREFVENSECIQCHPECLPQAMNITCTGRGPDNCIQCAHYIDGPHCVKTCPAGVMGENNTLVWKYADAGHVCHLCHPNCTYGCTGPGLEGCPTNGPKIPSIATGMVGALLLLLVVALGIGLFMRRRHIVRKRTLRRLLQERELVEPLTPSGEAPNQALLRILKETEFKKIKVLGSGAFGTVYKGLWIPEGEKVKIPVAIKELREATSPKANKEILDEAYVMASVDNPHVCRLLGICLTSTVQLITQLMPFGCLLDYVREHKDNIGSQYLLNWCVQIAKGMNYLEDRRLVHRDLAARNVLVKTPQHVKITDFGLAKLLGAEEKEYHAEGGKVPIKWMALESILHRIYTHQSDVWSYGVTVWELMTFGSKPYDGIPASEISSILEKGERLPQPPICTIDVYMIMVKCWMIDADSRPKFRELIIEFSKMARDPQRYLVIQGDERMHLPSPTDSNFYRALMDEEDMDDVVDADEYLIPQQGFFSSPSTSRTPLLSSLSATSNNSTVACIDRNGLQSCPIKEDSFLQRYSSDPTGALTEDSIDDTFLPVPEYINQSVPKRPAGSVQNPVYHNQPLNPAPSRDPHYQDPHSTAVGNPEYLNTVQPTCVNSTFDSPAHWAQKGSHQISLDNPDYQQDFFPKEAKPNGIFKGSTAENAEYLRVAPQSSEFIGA
Outline: as §1

[10] = molecular target: ALK (Homo sapiens, UniProt Q9UM73); experiment: Kinase assay, ALK (33P-ATP incorporation or luciferase-coupled ATP consumption); assay type: biochemical
Procedure: Kinase assays were performed by measurement of incorporation of γ-^33P ATP into immobilized myelin basic protein (MBP). […] Plates were washed 3× with 100 μl TBS. […] Compound dilutions were performed in DMSO and added to assay wells to a final DMSO concentration of 1%. Each data point was measured in duplicate, and at least two duplicate assays were performed for each individual compound determination. Enzyme was added to final concentrations of 10 nM or 20 nM, for example. A mixture of unlabeled ATP and γ-^33P ATP was added to start the reaction (2×10^6 cpm of γ-^33P ATP per well (3000 Ci/mmole) and either 10 μM or 30 μM unlabeled ATP, typically. The reactions were carried out for 1 hour at room temperature with shaking. Plates were washed 7× with TBS, followed by the addition of 50 μl/well scintillation fluid (Wallac). Plates were read using a Wallac Trilux counter. This is only one format of such assays, various other formats are possible, as known to one of ordinary skill in the art.
Tyrosine kinase activity is determined by 1) measurement of kinase-dependent ATP consumption by in the presence of a generic substrate such as, polyglutamic acid, tyrosine, 4:1 (pEY), by luciferase/luciferin-mediated chemiluminescence or; 2) incorporation of radioactive phosphate derived from ^33P-ATP into a generic substrate which has been adsorbed onto the well surface of polystyrene microtiter plates. Phosphorylated substrate products are quantified by scintillation spectrometry.
as §2

[11] = molecular target: T2, Flt3 (Homo sapiens, UniProt P36888); experiment: Kinase assay, Flt3; assay type: biochemical
T2 sequence (P36888 27-993): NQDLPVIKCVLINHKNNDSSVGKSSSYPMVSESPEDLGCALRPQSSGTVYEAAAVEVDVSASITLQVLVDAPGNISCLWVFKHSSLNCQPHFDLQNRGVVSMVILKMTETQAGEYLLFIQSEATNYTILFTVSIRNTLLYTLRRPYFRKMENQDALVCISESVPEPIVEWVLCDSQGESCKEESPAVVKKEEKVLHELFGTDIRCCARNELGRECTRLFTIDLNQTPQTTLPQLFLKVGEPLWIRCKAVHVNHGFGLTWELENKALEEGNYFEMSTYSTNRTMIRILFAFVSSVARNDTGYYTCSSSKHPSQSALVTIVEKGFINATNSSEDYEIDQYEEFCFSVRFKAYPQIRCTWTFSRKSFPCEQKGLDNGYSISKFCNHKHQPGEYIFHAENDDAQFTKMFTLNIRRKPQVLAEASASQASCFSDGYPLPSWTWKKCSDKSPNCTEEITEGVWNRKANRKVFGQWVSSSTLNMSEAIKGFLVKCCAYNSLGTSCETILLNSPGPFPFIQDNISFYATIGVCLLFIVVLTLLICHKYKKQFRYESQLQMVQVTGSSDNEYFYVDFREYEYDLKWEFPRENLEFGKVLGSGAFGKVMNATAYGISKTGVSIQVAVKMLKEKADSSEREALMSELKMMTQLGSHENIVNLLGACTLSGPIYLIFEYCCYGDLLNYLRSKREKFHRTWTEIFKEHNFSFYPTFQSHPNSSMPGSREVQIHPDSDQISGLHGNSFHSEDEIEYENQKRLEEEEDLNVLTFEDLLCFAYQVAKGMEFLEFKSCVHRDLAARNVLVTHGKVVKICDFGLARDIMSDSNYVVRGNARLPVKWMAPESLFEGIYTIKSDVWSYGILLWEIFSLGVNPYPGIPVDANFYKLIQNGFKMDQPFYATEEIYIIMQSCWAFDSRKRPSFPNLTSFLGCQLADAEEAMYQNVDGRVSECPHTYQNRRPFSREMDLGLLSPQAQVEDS
Procedure: as §2

Compound | IC50 [1] [nM] | IC50 [2] [nM] | IC50 [3] [nM] | IC50 [4] [nM] | IC50 [5] [nM] | IC50 [6] [nM] | IC50 [7] [nM] | IC50 [8] [nM] | IC50 [9] [nM] | IC50 [10] [nM] | IC50 [11] [nM]
CCN1CCC(Nc2ccc3c(c2)/C(=C(\c2ccc(C)c(F)c2)c2ncc[nH]2)C(=O)N3)CC1 [Entry 57, (3Z)-5-[(1-ethylpiperidin-4-yl)amino]-3-[(3-fluoro-4-methylphenyl)(1H-imidazol-2-yl)methylidene]-1,3-dihydro-2H-indol-2-one] |  | < 50 | < 50 |  | < 50 | 50 to 500 | 500 to 5000 | < 50 |  | 50 to 500 | 
CCN1CCC(Nc2ccc3c(c2)/C(=C(\c2ccc(F)cc2)c2ncc[nH]2)C(=O)N3)CC1 [Entry 58, (3Z)-5-[(1-ethylpiperidin-4-yl)amino]-3-[(4-fluorophenyl)(1H-imidazol-2-yl)methylidene]-1,3-dihydro-2H-indol-2-one] |  | < 50 | < 50 | < 50 | < 50 | 500 to 5000 | > 5000 | < 50 | 500 to 5000 | 50 to 500 | 
CCN1CCC(Nc2ccc3c(c2)/C(=C(\c2ccc(C)c(F)c2)c2nc(C)c[nH]2)C(=O)N3)CC1 [Entry 67, (3Z)-5-[(1-ethylpiperidin-4-yl)amino]-3-[(3-fluoro-4-methylphenyl) (4-methyl-1H-imidazol-2-yl)methylidene]-1,3-dihydro-2H-indol-2-one] |  | < 50 | < 50 |  | < 50 | 50 to 500 | 500 to 5000 | < 50 | < 50 | < 50 | 
CCN1CCC(Nc2ccc3c(c2)/C(=C(\c2ccc(Cl)cc2)c2nc(C)c[nH]2)C(=O)N3)CC1 [Entry 102] |  | < 50 | < 50 | < 50 | < 50 | 500 to 5000 | 500 to 5000 | < 50 | 50 to 500 | < 50 | 
CCN1CCC(Nc2ccc3c(c2)/C(=C(/c2ncc[nH]2)c2cc(F)c(Cl)cc2Cl)C(=O)N3)CC1 [Entry 116, (3Z)-3-[(2,4-dichloro-5-fluorophenyl) (1H-imidazol-2-yl)methylidene]-5-[(1-ethylpiperidin-4-yl)amino]-1,3-dihydro-2H-indol-2-one] |  | < 50 | < 50 | < 50 | < 50 | 500 to 5000 | 500 to 5000 | < 50 | 50 to 500 |  | < 50

Now from value to molecule:

IC50 [1] [nM] | IC50 [2] [nM] | IC50 [3] [nM] | IC50 [4] [nM] | IC50 [5] [nM] | IC50 [6] [nM] | IC50 [7] [nM] | IC50 [8] [nM] | IC50 [9] [nM] | IC50 [10] [nM] | IC50 [11] [nM] | Compound
50 to 500 | < 50 | < 50 | 50 to 500 | < 50 | 50 to 500 | 500 to 5000 | < 50 | 50 to 500 |  |  | CCN1CCC(Nc2ccc3c(c2)/C(=C(\c2ccc(C)cc2)c2ncc[nH]2)C(=O)N3)CC1 [Entry 13, (3Z)-5-[(1-ethylpiperidin-4-yl)amino]-3-[1H-imidazol-2-yl(4-methylphenyl)methylidene]-1,3-dihydro-2H-indol-2-one]
50 to 500 | < 50 | < 50 | 50 to 500 | < 50 | 500 to 5000 | 500 to 5000 | < 50 | 50 to 500 |  |  | COCCN1CCC(Nc2ccc3c(c2)/C(=C(\c2cccc(F)c2)c2ncc[nH]2)C(=O)N3)CC1 [Entry 41, (3Z)-3-[(3-fluorophenyl)(1H-imidazol-2-yl)methylidene]-5-({1-[2-(methyloxy)ethyl]piperidin-4-yl}amino)-1,3-dihydro-2H-indol-2-one]
 | < 50 | < 50 |  | < 50 | 50 to 500 | 500 to 5000 | < 50 | 50 to 500 | < 50 |  | CCN1CCC(Nc2ccc3c(c2)/C(=C(\c2ccc(C)cc2)c2nc(C)c[nH]2)C(=O)N3)CC1 [Entry 64, (3Z)-5-[(1-ethylpiperidin-4-yl)amino]-3-[(4-methyl-1H-imidazol-2-yl)(4-methylphenyl)methylidene] 1,3-dihydro-2H-indol-2-one]
 | < 50 | < 50 |  | < 50 | 500 to 5000 | 500 to 5000 |  | < 50 | < 50 |  | COCCN1CCC(Nc2ccc3c(c2)/C(=C(\c2ccc(C)c(F)c2)c2nc(C)c[nH]2)C(=O)N3)CC1 [Entry 97]
 | < 50 | < 50 | < 50 | < 50 | 500 to 5000 | 500 to 5000 | < 50 | 50 to 500 | < 50 |  | CCN1CCC(Nc2ccc3c(c2)/C(=C(/c2nc(C)c[nH]2)c2cccc(F)c2F)C(=O)N3)CC1 [Entry 110, (3Z)-3-[(2,3-difluorophenyl)(4-methyl-1H-imidazol-2-yl)methylidene]-5-[(1-ethylpiperidin-4-yl)amino]-1,3-dihydro-2H-indol-2-one]
 | < 50 | < 50 | < 50 | 50 to 500 | 500 to 5000 | 500 to 5000 | < 50 | 50 to 500 | 50 to 500 |  | CCN1CCC(Nc2ccc3c(c2)/C(=C(/c2nc(C)c[nH]2)c2ccc(F)cc2F)C(=O)N3)CC1 [Entry 111, (3Z)-3-[(2,4-difluorophenyl)(4-methyl-1H-imidazol-2-yl)methylidene]-5-[(1-ethylpiperidin-4-yl)amino]-1,3-dihydro-2H-indol-2-one]
 | < 50 | < 50 | < 50 | < 50 | 500 to 5000 | 50 to 500 |  | < 50 | < 50 |  | CCN1CCC(Nc2ccc3c(c2)/C(=C(/c2nc(C)c[nH]2)c2ccc(Cl)cc2F)C(=O)N3)CC1 [Entry 118, (3Z)-3-[(4-chloro-2-fluorophenyl)(4-methyl-1H-imidazol-2-yl)methylidene]-5-[(1-ethylpiperidin-4-yl)amino]-1,3-dihydro-2H-indol-2-one]
